Read-outs that look alike come from different tables or passages of the source.
Experiments:
[1] = tested on: Phosphorylation of ERK1/2 in AsPC-1 cells; assay: Phospho-ERK1/2 MSD Assay; format: cell-based, human; conditions: read-out: 2 h p-ERK (AsPC-1 cells), IC50
Procedure, shortened: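 Read-out: MSD electrochemiluminescent detection of phosphorylated ERK1/2 in whole-cell lysates, fitted to a 4-parameter logistic curve for IC50. Prior to lysis, AsPC-1 cells (25,000 per well) received a 2 h compound dose-response at 37 °C.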

AsPC-1 cells = assay: AsPC-1 CTG Assay (CellTiter-Glo cell viability); format: cell-based, human; conditions: AsPC-1, 72 h, first value of the cell, read-out: G12D/C/V Cell Proliferation CTG (72 h) AsPC-1
Procedure, shortened: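 IC50 values derive from 4-parameter logistic fits of CellTiter-Glo luminescence, expressed relative to DMSO. Compound dilution series were applied to overnight-seeded AsPC-1 or SW620 cells (RPMI 1640, 10% FBS) for 72 h at 37 °C, 5% CO2.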

MIA PaCa-2 cells = assay: MIA PaCa-2 CTG Assay (CellTiter-Glo cell viability); format: cell-based, human; conditions: Mia PaCa-2, 72 h, second value of the cell, read-out: G12D/C/V Cell Proliferation CTG (72 h) Mia PaCa-2
Procedure, shortened: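 IC50 values come from a 4-parameter logistic fit of CellTiter-Glo luminescence, normalized to DMSO control, after 72 h compound exposure at 37° C, 5% CO2. Cells grew in RPMI 1640 plus 10% FBS and were seeded at 1.67E+04 cells/mL one night before dosing.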

[2] = molecular target: His-tagged KRAS G12D protein (Homo sapiens (Human), UniProt P01116, G12D); assay: KRAS G12D TR-FRET Assay; format: binding; conditions: read-out: KRAS G12D Binding IC50
Sequence of His-tagged KRAS G12D protein (P01116 other isoform, or with tags, fused parts or gaps G12D): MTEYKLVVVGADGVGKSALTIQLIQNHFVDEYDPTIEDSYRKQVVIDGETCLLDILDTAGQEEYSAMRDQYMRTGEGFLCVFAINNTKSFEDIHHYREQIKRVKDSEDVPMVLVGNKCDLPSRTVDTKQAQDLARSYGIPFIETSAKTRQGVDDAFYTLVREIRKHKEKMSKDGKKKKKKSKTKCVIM
Procedure, shortened: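 Each incubation ran at room temperature: enzyme with compound for 30 minutes, peptide for one hour, and detection reagents (0.4 nM europium anti-6×His, 5 nM streptavidin-d2) for one hour more. Protein and peptide stocks were each diluted to 20 nM before addition.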

SW620 cells = assay: SW620 CTG Assay (CellTiter-Glo cell viability); format: cell-based, human; conditions: SW620, 72 h, third value of the cell, read-out: G12D/C/V Cell Proliferation CTG (72 h) SW620
Method: AsPC-1 and SW620 CTG Assay Protocols
AsPC-1 (human pancreatic adenocarcinoma; ATCC CRL-1682) or SW620 (human colon adenocarcinoma; ATCC CCL-227) cells were cultured in RPMI 1640 medium containing 10% fetal bovine serum and 1× penicillin/streptomycin/L-glutamine. Cells were seeded in 384-well plates at a density of 3.33E+04 cells/mL and incubated at 37° C., 5% CO2, overnight. Serially-diluted compound or DMSO was added to the cells, and plates were incubated at 37° C., 5% CO2 for 72 h. Cell viability was measured using a CellTiter-Glo® Luminescent Cell Viability Assay kit (Promega) according to the manufacturer's protocol. The luminescence signal of treated samples was normalized to DMSO control, and data were analyzed using a 4-parameter logistic model to calculate IC50 values.

[3] = molecular target: GDP-bound KRAS protein (aa 1-169), containing both G12D and C118A amino acid substitutions (Homo sapiens (Human), UniProt P01116, C118A/G12D); assay: KRAS G12D Coupled Nucleotide Exchange Assay; format: biochemical; conditions: read-out: KRAS G12D Coupled Exchange IC50
Sequence of GDP-bound KRAS protein (aa 1-169), containing both G12D and C118A amino acid substitutions (P01116 other isoform, or with tags, fused parts or gaps G12D/C118A): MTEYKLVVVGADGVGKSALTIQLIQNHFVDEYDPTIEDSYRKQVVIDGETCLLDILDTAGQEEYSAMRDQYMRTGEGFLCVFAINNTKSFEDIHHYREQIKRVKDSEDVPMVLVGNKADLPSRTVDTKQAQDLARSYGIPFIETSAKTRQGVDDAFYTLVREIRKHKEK

| SMILES | IC50 ([1]; Homo sapiens, ASPC1, 2 h) | IC50 (AsPC-1 cells; Homo sapiens, ASPC1, 72 h) | IC50 (MIA PaCa-2 cells; Homo sapiens) | IC50 [2] | IC50 (SW620 cells; Homo sapiens, SW-620) | IC50 [3] | IC50 ([1]; 2 h) | IC50 (AsPC-1 cells) | IC50 (MIA PaCa-2 cells) | IC50 (SW620 cells) |
| --- | --- | --- | --- | --- | --- | --- | --- | --- | --- | --- |
| O=C1CCCCc2c(Cl)cc3[nH]ncc3c2-c2ncc3c(nc(OC[C@@]45CCCN4C[C@H](F)C5)nc3c2F)N2CCCC[C@H](C2)N1 [Example 65, (26R)-18-Chloro-32-fluoro-4-(((2R,7aS)-2-fluorotetrahydro-1H-pyrrolo[1,2-a]pyrrol-7a(5H)-yl)methoxy)-1,3,5,9,14,15,25-heptaazahexacyclo[24.4.1.1˜6,10˜.0˜2,7˜.0˜11,19˜.0˜12,16˜]dotriaconta-2,4,6,8,10(32),11,13,16,18-nonaen-24-one bis(2,2,2-trifluoroacetate)] | 24 nM | 320 nM | 160 nM | 6 nM | 52 nM | 2 nM |  |  |  |  |
| C[C@@]12CCCN(C1)c1nc(OC[C@@]34CCCN3C[C@H](F)C4)nc3c(F)c(ncc13)-c1cc(O)cc3ccc(F)c(c13)CCCC(=O)N2 [Example 4, (15R)-22,31-Difluoro-8-(((2R,7aS)-2-fluorotetrahydro-1H-pyrrolo[1,2-a]pyrrol-7a(5H)-yl)methoxy)-27-hydroxy-15-methyl-3,7,9,11,16-pentaazahexacyclo[19.7.1.1˜2,6˜.1˜11,15˜.0˜5,10˜.0˜25,29˜]hentriaconta-1(28),2(31),3,5,7,9,21,23,25(29),26-decaen-17-one bis(2,2,2-trifluoroacetate)] | 3 nM | 14 nM | 5 nM | 4 nM | 7 nM | 2 nM |  |  |  |  |
| O=C1OC[C@@H]2C[C@@H]2c2c(Cl)cc3[nH]ncc3c2-c2ncc3c(nc(OC[C@@]45CCCN4C[C@H](F)C5)nc3c2F)N2CCC[C@H](C2)O1 [Example 45, (11S,13R,18R)-9-Chloro-31-fluoro-25-(((2R,7aS)-2-fluorotetrahydro-1H-pyrrolo[1,2-a]pyrrol-7a(5H)-yl)methoxy)-15,17-dioxa-5,6,22,24,26,30-hexaazaheptacyclo[25.3.1.1˜18,22˜.0˜2,10˜.0˜3,7˜.0˜11,13˜.0˜23,28˜]dotriaconta-1(31),2,4,7,9,23,25,27,29-nonaen-16-one bis(2,2,2-trifluoroacetate)] | 1 nM | 50 nM | 10 nM | 2 nM | 10 nM | 1 nM |  |  |  |  |
| O=C1OCCCc2c(Cl)cc3[nH]ncc3c2-c2ncc3c(nc(OC[C@@]45CCCN4C[C@H](F)C5)nc3c2F)N2CC[C@H]3CCN1[C@H]3C2 [Example 177, (28S,32R)-18-chloro-33-fluoro-4-(((2R,7aS)-2-fluorotetrahydro-1H-pyrrolo[1,2-a]pyrrol-7a(5H)-yl)methoxy)-23-oxa-1,3,5,9,14,15,25-heptaazaheptacyclo[23.5.2.1~6,10~.0~2,7~.0~11,19~.0~12,16~.0~28,32~]tritriaconta-2,4,6,8,10(33),11,13,16,18-nonaen-24-one] | 16.3 nM | 178 nM | 100 nM | 3 nM | 39 nM | 3 nM |  |  |  |  |

The remaining lines, values ahead:

| IC50 ([1]; Homo sapiens, ASPC1, 2 h) | IC50 (AsPC-1 cells; Homo sapiens, ASPC1, 72 h) | IC50 (MIA PaCa-2 cells; Homo sapiens) | IC50 [2] | IC50 (SW620 cells; Homo sapiens, SW-620) | IC50 [3] | IC50 ([1]; 2 h) | IC50 (AsPC-1 cells) | IC50 (MIA PaCa-2 cells) | IC50 (SW620 cells) | SMILES |
| --- | --- | --- | --- | --- | --- | --- | --- | --- | --- | --- |
| 6.7 nM | 54 nM | 13 nM | 4 nM | 10 nM | 3 nM |  |  |  |  | O=C1OCCc2c(Cl)cc3[nH]ncc3c2-c2ncc3c(nc(OC[C@@]45CCCN4C[C@H](F)C5)nc3c2F)N2CCOC[C@]3(C2)C[C@H](C3)O1 [Example 316, (1R,3R)-10-chloro-33-fluoro-24-(((2R,7aS)-2-fluorotetrahydro-1H-pyrrolo[1,2-a]pyrrol-7a(5H)-yl)methoxy)-4,6,30-trioxa-13,14,19,23,25,27-hexaazaheptacyclo[25.4.1.1~1,3~.1~18,22~.0~9,17~.0~12,16~.0~21,26~]tetratriaconta-9,11,14,16,18(33),19,21,23,25-nonaen-5-one] |
| 21.9 nM | 230 nM | 140 nM | 3 nM | 80 nM | 2 nM |  |  |  |  | Fc1cc2[nH]ncc2c2c1CCCCOC[C@H]1CCCCN(C1)c1nc(OC[C@@]34CCCN3C[C@H](F)C4)nc3c(F)c-2ncc13 [Example 240, (26S)-18,32-difluoro-4-(((2R,7aS)-2-fluorotetrahydro-1H-pyrrolo[1,2-a]pyrrol-7a(5H)-yl)methoxy)-24-oxa-1,3,5,9,14,15-hexaazahexacyclo[24.4.1.1~6, 10~.0~2,7~.0~11,19~.0~12,16~]dotriaconta-2,4,6(32),7,9,11,13,16,18-nonaene] |
|  |  |  | 4 nM |  | 2 nM | 3.2 nM | 40 nM | 26 nM | 8 nM | Fc1c2ncc3c(nc(OC[C@@]45CCCN4C[C@H](F)C5)nc13)N1CCC[C@]3(C1)C[C@H](C3)OCCCCc1c(Cl)cc3[nH]ncc3c1-2 [Example 260, (1S,3R)-10-Chloro-32-fluoro-24-(((2R,7aS)-2-fluorotetrahydro-1H-pyrrolo[1,2-a]pyrrol-7a(5H)-yl)methoxy)-4-oxa-13,14,19,23,25,27-hexaazaheptacyclo[25.3.1.1˜1,3˜.1˜18,22˜.0˜9,17˜.0˜12,16˜.0˜21,26˜]tritriaconta-9,11,14,16,18(32),19,21,23,25-nonaene bis(2,2,2-trifluoroacetate)] |
| 49.3 nM | 164 nM | 50 nM | 8 nM | 44 nM | 4 nM |  |  |  |  | Cc1cc2[nH]ncc2c2c1CCCOC(=O)O[C@]1(C)COCCN(C1)c1nc(OC[C@@H]3CCCN3C)nc3c(F)c-2ncc13 [Example 183, (26S)-32-fluoro-18,26-dimethyl-4-(((2S)-1-methyl-2-pyrrolidinyl)methoxy)-23,25,28-trioxa-1,3,5,9,14,15-hexaazahexacyclo[24.4.1.1~6,10~.0~2,7~.0~11,19~.0~12,16~]dotriaconta-2,4,6,8,10(32),11,13,16,18-nonaen-24-one] |
| 4.2 nM | 36 nM | 7 nM | 5 nM | 6 nM | 3 nM |  |  |  |  | O=C1OCCCc2c(Cl)cc3[nH]ncc3c2-c2ncc3c(nc(OC[C@@]45CCCN4C[C@H](F)C5)nc3c2F)N2CCOC[C@](CF)(C2)O1 [Example 311, (26S)-18-chloro-32-fluoro-26-(fluoromethyl)-4-(((2R,7aS)-2-fluorotetrahydro-1H-pyrrolo[1,2-a]pyrrol-7a(5H)-yl)methoxy)-23,25,28-trioxa-1,3,5,9,14,15-hexaazahexacyclo[24.4.1.1~6,10~.0~2,7~.0~11,19~.0~12,16~]dotriaconta-2,4,6(32),7,9,11,13,16,18-nonaen-24-one] |
| 8.1 nM | 108 nM | 16 nM | 2 nM | 14 nM | 1 nM |  |  |  |  | O=C1OCCCc2c(Cl)cc3[nH]ncc3c2-c2ncc3c(nc(OCC45CCCN4CCC5)nc3c2F)N2CCOC[C@H](C2)O1 [Example 198, (26S)-18-chloro-32-fluoro-4-(tetrahydro-1H-pyrrolo[1,2-a]pyrrol-7a(5H)-ylmethoxy)-23,25,28-trioxa-1,3,5,9,14,15-hexaazahexacyclo[24.4.1.1~6,10~.0~2,7~.0~11,19~.0~12,16~]dotriaconta-2,4,6,8,10(32),11,13,16,18-nonaen-24-one] |

— patent US20240294551A1 (AMGEN INC., priority 2022, published 2024)
